Source: patent US20090311217A1, “3-SUBSTITUTED-1H-INDOLE COMPOUNDS, THEIR USE AS MTOR KINASE AND PI3 KINASE INHIBITORS, AND THEIR SYNTHESES” (priority 2008, published 2009)

Legend:
PI3K-gamma = PI3K-gamma (Homo sapiens, UniProt P48736); assay: PI3K-gamma fluorescence polarization assay; format: biochemical; conditions: PI3Kγ Avg. IC50
Method in brief: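 Reactions in 5 mM HEPES pH 7, 2.5 mM MgCl2, 25 μM ATP with 2.5 μM diC8-PI(4,5)P2 and 5 ng enzyme, 1 h at 25° C, then EDTA quench. Product detected by FP using GST-GRP1 PH domain (100 nM) and BODIPY-TMR-IP4 tracer (5 nM); final DMSO 0.8%.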

PI3K-alpha = PI3K-alpha (Homo sapiens, UniProt P42336); assay: PI3K-alpha fluorescence polarization assay; format: biochemical; conditions: read-out: PI3Kα Avg. IC50
Chain of PI3K-alpha (P42336 whole entry, species assumed): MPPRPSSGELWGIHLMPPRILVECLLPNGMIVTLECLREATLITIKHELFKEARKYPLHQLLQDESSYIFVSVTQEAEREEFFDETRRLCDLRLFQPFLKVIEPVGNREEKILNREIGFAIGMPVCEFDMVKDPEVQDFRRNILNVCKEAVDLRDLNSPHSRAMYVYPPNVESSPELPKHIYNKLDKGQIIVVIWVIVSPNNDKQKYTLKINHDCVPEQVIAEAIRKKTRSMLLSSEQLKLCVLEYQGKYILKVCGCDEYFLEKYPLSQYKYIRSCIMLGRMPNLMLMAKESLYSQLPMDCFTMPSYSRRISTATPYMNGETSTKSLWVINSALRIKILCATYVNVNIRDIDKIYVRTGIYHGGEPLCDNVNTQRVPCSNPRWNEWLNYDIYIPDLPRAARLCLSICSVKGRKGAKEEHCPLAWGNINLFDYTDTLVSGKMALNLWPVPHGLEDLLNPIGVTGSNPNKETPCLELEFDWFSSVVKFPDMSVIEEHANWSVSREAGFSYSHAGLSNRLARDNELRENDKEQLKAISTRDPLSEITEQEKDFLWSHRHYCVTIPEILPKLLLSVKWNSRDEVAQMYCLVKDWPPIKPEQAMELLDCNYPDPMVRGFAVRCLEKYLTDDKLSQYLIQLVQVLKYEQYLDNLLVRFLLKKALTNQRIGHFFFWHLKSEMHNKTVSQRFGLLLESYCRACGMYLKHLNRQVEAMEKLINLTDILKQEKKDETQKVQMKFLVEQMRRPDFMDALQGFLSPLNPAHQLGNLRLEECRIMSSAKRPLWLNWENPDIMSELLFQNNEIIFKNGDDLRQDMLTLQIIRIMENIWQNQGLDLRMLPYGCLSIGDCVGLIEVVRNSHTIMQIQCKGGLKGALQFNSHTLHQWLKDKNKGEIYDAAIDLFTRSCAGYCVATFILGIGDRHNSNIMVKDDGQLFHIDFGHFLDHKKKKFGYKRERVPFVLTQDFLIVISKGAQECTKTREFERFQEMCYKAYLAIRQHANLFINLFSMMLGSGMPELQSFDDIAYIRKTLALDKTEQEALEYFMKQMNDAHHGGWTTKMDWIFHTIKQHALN
Chain of PI3K-alpha (P27986 whole entry partner, species assumed): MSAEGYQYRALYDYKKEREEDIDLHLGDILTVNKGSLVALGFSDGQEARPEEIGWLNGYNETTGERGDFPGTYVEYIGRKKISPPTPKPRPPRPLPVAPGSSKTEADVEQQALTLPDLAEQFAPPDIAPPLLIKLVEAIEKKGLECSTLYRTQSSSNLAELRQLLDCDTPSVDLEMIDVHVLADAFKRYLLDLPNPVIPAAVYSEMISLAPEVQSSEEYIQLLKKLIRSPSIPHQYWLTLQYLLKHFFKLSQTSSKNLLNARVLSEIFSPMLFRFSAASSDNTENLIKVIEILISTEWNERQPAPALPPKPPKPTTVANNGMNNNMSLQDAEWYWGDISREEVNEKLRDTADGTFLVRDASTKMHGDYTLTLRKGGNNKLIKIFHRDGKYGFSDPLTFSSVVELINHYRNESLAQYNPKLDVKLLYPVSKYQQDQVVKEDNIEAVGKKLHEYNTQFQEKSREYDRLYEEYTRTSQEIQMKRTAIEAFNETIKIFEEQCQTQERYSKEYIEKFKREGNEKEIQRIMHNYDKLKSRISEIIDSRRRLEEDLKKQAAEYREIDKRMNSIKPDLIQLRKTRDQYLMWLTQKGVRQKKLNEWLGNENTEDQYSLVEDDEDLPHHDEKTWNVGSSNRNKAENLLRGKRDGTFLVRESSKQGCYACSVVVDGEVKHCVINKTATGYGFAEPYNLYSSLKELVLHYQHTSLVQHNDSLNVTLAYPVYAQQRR

Chain of PI3K-gamma (P48736 whole entry, species assumed, the tested form may be a part): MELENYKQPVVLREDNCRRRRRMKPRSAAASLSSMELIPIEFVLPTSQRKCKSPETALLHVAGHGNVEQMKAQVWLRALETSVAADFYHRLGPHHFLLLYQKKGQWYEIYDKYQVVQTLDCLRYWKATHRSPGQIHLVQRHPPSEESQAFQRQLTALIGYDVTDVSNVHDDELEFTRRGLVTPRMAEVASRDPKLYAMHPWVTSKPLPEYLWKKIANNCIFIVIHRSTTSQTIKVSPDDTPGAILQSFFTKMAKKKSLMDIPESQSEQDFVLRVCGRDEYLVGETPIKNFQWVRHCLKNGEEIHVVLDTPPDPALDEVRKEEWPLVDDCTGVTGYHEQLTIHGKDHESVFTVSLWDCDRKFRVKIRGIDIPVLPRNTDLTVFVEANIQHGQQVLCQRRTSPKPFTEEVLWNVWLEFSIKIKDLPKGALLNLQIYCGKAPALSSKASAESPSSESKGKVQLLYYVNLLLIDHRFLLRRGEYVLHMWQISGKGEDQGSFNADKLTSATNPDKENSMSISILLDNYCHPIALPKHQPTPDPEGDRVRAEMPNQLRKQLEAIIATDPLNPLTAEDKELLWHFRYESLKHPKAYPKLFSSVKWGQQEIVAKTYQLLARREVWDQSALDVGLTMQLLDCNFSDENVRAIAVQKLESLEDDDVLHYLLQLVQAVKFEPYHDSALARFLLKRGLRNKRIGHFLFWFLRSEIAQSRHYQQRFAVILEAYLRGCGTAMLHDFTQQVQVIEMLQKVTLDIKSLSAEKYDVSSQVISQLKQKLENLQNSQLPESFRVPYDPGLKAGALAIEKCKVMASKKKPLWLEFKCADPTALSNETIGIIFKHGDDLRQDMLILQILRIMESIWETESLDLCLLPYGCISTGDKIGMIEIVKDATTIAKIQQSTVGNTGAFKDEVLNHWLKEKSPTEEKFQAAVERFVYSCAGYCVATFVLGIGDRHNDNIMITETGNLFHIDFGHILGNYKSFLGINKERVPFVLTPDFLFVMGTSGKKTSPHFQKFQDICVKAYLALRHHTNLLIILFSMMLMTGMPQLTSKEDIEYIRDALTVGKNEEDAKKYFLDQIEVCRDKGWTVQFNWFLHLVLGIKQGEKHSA

IC50 (PI3K-gamma)	IC50 (PI3K-alpha)	Compound
> 10 µM	> 10 µM	CCNC(=O)Nc1ccc2c(c1)C(=O)/C(=C/c1cn(C)c3cccc(-c4ccccc4)c13)O2 [Compound 543, 1-ethyl-3-{(2Z)-2-[(1-methyl-4-phenyl-1H-indol-3-yl)methylidene]-3-oxo-2,3-dihydro-1-benzofuran-5-yl}urea]
1.24 µM	0.0405 µM	COc1cc(/C=C/CN2CCN(C)CC2)c2[nH]cc(/C=C3\Oc4cc(O)ccc4C3=O)c2c1 [Compound 545, (2Z)-6-hydroxy-2-({5-methoxy-7-[(1E)-3-(4-methylpiperazin-1-yl)prop-1-en-1-yl]-1H-indol-3-yl}methylene)-1-benzofuran-3(2H)-one]
2.12 µM	0.063 µM	CCNC(=O)Nc1ccc2c(c1)C(=O)/C(=C/c1cn(CCCN(C)C)c3ccc(OC)cc13)O2 [Compound 547, 1-[(2Z)-2-({1-[3-(dimethylamino)propyl]-5-methoxy-1H-indol-3-yl}methylene)-3-oxo-2,3-dihydro-1-benzofuran-5-yl]-3-ethylurea]
2.79 µM	0.0645 µM	C#CCNC(=O)Nc1ccc2c(c1)C(=O)/C(=C/c1cn(CCN3CCN(C)CC3)c3ccc(OC)cc13)O2 [Compound 548, 1-[(2Z)-2-({5-methoxy-1-[2-(4-methylpiperazin-1-yl)ethyl]-1H-indol-3-yl}methylene)-3-oxo-2,3-dihydro-1-benzofuran-5-yl]-3-prop-2-yn-1-ylurea]
2.98 µM	0.0135 µM	COc1ccc2c(c1)c(/C=C1\Oc3ccc(NC(=O)NCCN)cc3C1=O)cn2CCN1CCN(C)CC1 [Compound 549, 1-(2-aminoethyl)-3-[(2Z)-2-({5-methoxy-1-[2-(4-methylpiperazin-1-yl)ethyl]-1Hindol-3-yl}methylene)-3-oxo-2,3-dihydro-1-benzofuran-5-yl]urea]
1.13 µM	0.0645 µM	C=CCNC(=O)Nc1ccc2c(c1)C(=O)/C(=C/c1cn(CCN3CCN(C)CC3)c3ccc(OC)cc13)O2 [Compound 550, 1-allyl-3-[(2Z)-2-({5-methoxy-1-[2-(4-methylpiperazin-1-yl)ethyl]-1H-indol-3-yl}methylene)-3-oxo-2,3-dihydro-1-benzofuran-5-yl]urea]
3.15 µM	0.192 µM	COc1ccc2c(c1)c(/C=C1\Oc3ccc(NC(N)=O)cc3C1=O)cn2CCN1CCN(C)CC1 [Compound 551, 1-[(2Z)-2-({5-methoxy-1-[2-(4-methylpiperazin-1-yl)ethyl]-1H-indol-3-yl}methylene)-3-oxo-2,3-dihydro-1-benzofuran-5-yl]urea]
> 10 µM	0.355 µM	COc1ccc2c(c1)c(/C=C1\Oc3ccc(NC(=O)NC4CNC4)cc3C1=O)cn2CCN1CCN(C)CC1 [Compound 552, 1-azetidin-3-yl-3-[(2Z)-2-({5-methoxy-1-[2-(4-methylpiperazin-1-yl)ethyl]-1Hindol-3-yl}methylene)-3-oxo-2,3-dihydro-1-benzofuran-5-yl]urea]
4.83 µM	0.031 µM	CNC(=O)Nc1ccc2c(c1)C(=O)/C(=C/c1cn(CCN3CCN(C)CC3)c3ccc(OC)cc13)O2 [Compound 553, 1-[(2Z)-2-({5-methoxy-1-[2-(4-methylpiperazin-1-yl)ethyl]-1H-indol-3-yl}methylene)-3-oxo-2,3-dihydro-1-benzofuran-5-yl]-3-methylurea]
5.26 µM	0.073 µM	COc1ccc2c(c1)c(/C=C1\Oc3ccc(NC(=O)NCCO)cc3C1=O)cn2CCCN(C)C [Compound 554, 1-[(2Z)-2-({1-[3-(dimethylamino)propyl]-5-methoxy-1H-indol-3-yl}methylene)-3-oxo-2,3-dihydro-1-benzofuran-5-yl]-3-(2-hydroxyethyl)urea]
1.89 µM	0.048 µM	COc1cc(/C=C/CN2CCCCC2)c2[nH]cc(/C=C3\Oc4cc(O)ccc4C3=O)c2c1 [Compound 555, (2Z)-6-hydroxy-2-({5-methoxy-7-[(1E)-3-piperidin-1-ylprop-1-en-1-yl]-1H-indol-3-yl}methylene)-1-benzofuran-3(2H)-one]
0.835 µM	0.00215 µM	CNC(=O)Nc1ccc2c(c1)C(=O)/C(=C/c1c(C)n(CCN3CCN(C)CC3)c3ccc(OC)cc13)O2 [Compound 556, 1-[(2Z)-2-({5-methoxy-2-methyl-1-[2-(4-methylpiperazin-1-yl)ethyl]-1H-indol-3-yl}methylene)-3-oxo-2,3-dihydro-1-benzofuran-5-yl]-3-methylurea]
> 10 µM	1.2 µM	Cn1cc(/C=C2/Oc3cc(O)cc(O)c3C2=O)c2c(-c3ccccc3)cccc21 [Compound 557, (2E)-4,6-dihydroxy-2-[(1-methyl-4-phenyl-1H-indol-3-yl)methylene]-1-benzofuran-3(2H)-one]
0.537 µM	0.00225 µM	CNC(=O)Nc1ccc2c(c1)C(=O)/C(=C/c1c(C3CC3)n(CCN3CCN(C)CC3)c3ccc(OC)cc13)O2 [Compound 559, 1-[(2Z)-2-({2-cyclopropyl-5-methoxy-1-[2-(4-methylpiperazin-1-yl)ethyl]-1Hindol-3-yl}methylene)-3-oxo-2,3-dihydro-1-benzofuran-5-yl]-3-methylurea]
1.6 µM	0.133 µM	COc1ccc2c(c1)c(/C=C1\Oc3ccc(NC(=O)NC4CC4)cc3C1=O)cn2CCCN(C)C [Compound 560, 1-cyclopropyl-3-[(2Z)-2-({1-[3-(dimethylamino)propyl]-5-methoxy-1H-indol-3-yl}methylene)-3-oxo-2,3-dihydro-1-benzofuran-5-yl]urea]
0.378 µM	0.00315 µM	CNC(=O)Nc1ccc2c(c1)C(=O)/C(=C/c1c(C3CCCC3)n(CCN3CCN(C)CC3)c3ccc(OC)cc13)O2 [Compound 561, 1-[(2Z)-2-({2-cyclopentyl-5-methoxy-1-[2-(4-methylpiperazin-1-yl)ethyl]-1Hindol-3-yl}methylene)-3-oxo-2,3-dihydro-1-benzofuran-5-yl]-3-methylurea]
0.209 µM	0.00285 µM	CNC(=O)Nc1ccc2c(c1)C(=O)/C(=C/c1c(C3CCC3)n(CCN3CCN(C)CC3)c3ccc(OC)cc13)O2 [Compound 562, 1-[(2Z)-2-({2-cyclobutyl-5-methoxy-1-[2-(4-methylpiperazin-1-yl)ethyl]-1H-indol-3-yl}methylene)-3-oxo-2,3-dihydro-1-benzofuran-5-yl]-3-methylurea]
5.22 µM	0.0355 µM	CNCCNC(=O)Nc1ccc2c(c1)C(=O)/C(=C/c1cn(CCN3CCN(C)CC3)c3ccc(OC)cc13)O2 [Compound 563, 1-[(2Z)-2-({5-methoxy-1-[2-(4-methylpiperazin-1-yl)ethyl]-1H-indol-3-yl}methylene)-3-oxo-2,3-dihydro-1-benzofuran-5-yl]-3-[2-(methylamino)ethyl]urea]
7.62 µM	0.0955 µM	CNCCCNC(=O)Nc1ccc2c(c1)C(=O)/C(=C/c1cn(CCN3CCN(C)CC3)c3ccc(OC)cc13)O2 [Compound 564, 1-[(2Z)-2-({5-methoxy-1-[2-(4-methylpiperazin-1-yl)ethyl]-1H-indol-3-yl}methylene)-3-oxo-2,3-dihydro-1-benzofuran-5-yl]-3-[3-(methylamino)propyl]urea]
> 10 µM	0.114 µM	COc1ccc2c(c1)c(/C=C1\Oc3ccc(NC(=O)NCCCCN)cc3C1=O)cn2CCN1CCN(C)CC1 [Compound 565, 1-(4-aminobutyl)-3-[(2Z)-2-({5-methoxy-1-[2-(4-methylpiperazin-1-yl)ethyl]-1Hindol-3-yl}methylene)-3-oxo-2,3-dihydro-1-benzofuran-5-yl]urea]
7.79 µM	0.0935 µM	COc1ccc2c(c1)c(/C=C1\Oc3ccc(NC(=O)NCCCN)cc3C1=O)cn2CCN1CCN(C)CC1 [Compound 566, 1-(3-aminopropyl)-3-[(2Z)-2-({5-methoxy-1-[2-(4-methylpiperazin-1-yl)ethyl]-1Hindol-3-yl}methylene)-3-oxo-2,3-dihydro-1-benzofuran-5-yl]urea]
1.55 µM	0.164 µM	CNC(=O)Nc1ccc2c(c1)C(=O)/C(=C/c1c[nH]c3c(/C=C/CN4CCOCC4)cc(OC)cc13)O2 [Compound 567, 1-[(2Z)-2-({5-methoxy-7-[(1E)-3-morpholin-4-ylprop-1-en-1-yl]-1H-indol-3-yl}methylene)-3-oxo-2,3-dihydro-1-benzofuran-5-yl]-3-methylurea]
3.39 µM	0.477 µM	COc1ccc2c(c1)c(/C=C1\Oc3ccc(NC(=O)NCCCO)cc3C1=O)cn2CCCN(C)C [Compound 568, 1-[(2Z)-2-({1-[3-(dimethylamino)propyl]-5-methoxy-1H-indol-3-yl}methylene)-3-oxo-2,3-dihydro-1-benzofuran-5-yl]-3-(3-hydroxypropyl)urea]
6.5 µM	0.242 µM	COc1ccc2c(c1)c(/C=C1\Oc3ccc(NC(=O)NCCCN(C)C)cc3C1=O)cn2CCN1CCN(C)CC1 [Compound 569, 1-[3-(dimethylamino)propyl]-3-[(2Z)-2-({5-methoxy-1-[2-(4-methylpiperazin-1-yl)ethyl]-1H-indol-3-yl}methylene)-3-oxo-2,3-dihydro-1-benzofuran-5-yl]urea]
6.49 µM	8.41 µM	CNC(=O)Nc1ccc2c(c1)C(=O)/C(=C/c1c[nH]c3c(CN4CCOCC4)cc(OC)cc13)O2 [Compound 570, 1-[(2Z)-2-{[5-methoxy-7-(morpholin-4-ylmethyl)-1H-indol-3-yl]methylene}-3-oxo-2,3-dihydro-1-benzofuran-5-yl]-3-methylurea]
6.44 µM	0.613 µM	CNC(=O)Nc1ccc2c(c1)C(=O)/C(=C/c1c[nH]c3c(CN4CCN(C)CC4)cc(OC)cc13)O2 [Compound 571, 1-[(2Z)-2-({5-methoxy-7-[(4-methylpiperazin-1-yl)methyl]-1H-indol-3-yl}methylene)-3-oxo-2,3-dihydro-1-benzofuran-5-yl]-3-methylurea]
